Data on one compound can be found in patent US20210008206A1, “ADENOSINE PATHWAY INHIBITORS FOR CANCER TREATMENT” (Corvus Pharmaceuticals, Inc., priority 2017, published 2021).

Experiment [1] has as its system patients with advanced cancers. Nature of the experiment: Phase 1/1b clinical trial, tumor response by baseline biomarker level. Format: in vivo, human. The conditions noted are these: for Objective response rate / Disease control rate: 100 mg orally twice a day, 28 days. How it is done:
FIG. 3 is a graph showing tumor response to treatment with the compound of Formula (III) in patients expressing low levels of adenosine A2A receptors and patients expressing high levels of adenosine A2A receptors. RNA was extracted from pre-treatment tumor samples, and Nanostring was performed to arrive at the values described herein. The disease control rate was 0 of 11 patients who expressed low levels of adenosine A2A receptors, and was 9 of 26 patients who expressed high levels of adenosine A2A receptors. The objective response rate was 0 of II patients who expressed low levels of adenosine A2A receptors, and 1 of 26 patients who expressed high levels of adenosine A2A receptors.
FIG. 4 is a graph showing tumor response to treatment with the compound of Formula (III) in patients expressing low levels of CD73 and patients expressing high levels of CD73. RNA was extracted from pre-treatment tumor samples, and Nanostring was performed to arrive at the values described herein. The disease control rate was 1 of 9 patients who expressed low levels of CD73, and was 8 of 28 patients who expressed high levels of CD73. The objective response rate was 0 of 9 patients who expressed low levels of CD73, and was 1 of 28 patients who expressed high levels of CD73.
FIG. 5 is a graph showing tumor response to treatment with the compound of Formula (III) in patients expressing low levels of adenosine A2A receptors and/or CD73 and patients expressing high levels of both adenosine A2A receptors and CD73. RNA was extracted from pre-treatment tumor samples, and Nanostring was performed to arrive at the values described herein. The disease control rate was 8 of 21 patients who expressed low levels of adenosine A2A receptors and/or CD73, and was 1 of 16 patients who expressed high levels of both adenosine A2A receptors and CD73. The objective response rate was 1 of 21 patients who expressed low levels of adenosine A2A receptors and/or CD73, and was 0 of 16 patients who expressed high levels of both adenosine A2A receptors and CD73.
FIG. 6 is a graph showing tumor response to treatment with the compound of Formula (III) in patients expressing low levels of PD-L1 mRNA and patients expressing high levels of PD-L1 mRNA. RNA was extracted from pre-treatment tumor samples, and Nanostring was performed to arrive at the values described herein. The disease control rate was 3 of 17 patients who expressed low levels of PD-L1 mRNA, and was 6 of 20 patients who expressed high levels of PD-L1 mRNA. The objective response rate was 0 of 17 patients who expressed low levels of PD-L1 mRNA, and was 1 of 20 patients who expressed high levels of PD-L1 mRNA.
FIG. 7 is a graph showing tumor response to treatment with the compound of Formula (III) in patients having low levels of PD-L1 and patients having high levels of PD-L1. PD-L1 staining on immune cells was determined by immunohistochemistry using the SP142 antibody that detects PD-L1. The disease control rate was 7 of 24 patients who expressed low levels of PD-L1, and was 2 of 13 patients who expressed high levels of PD-L1. The objective response rate was 0 of 24 patients who expressed low levels of PD-L1, and was 1 of 13 patients who expressed high levels of PD-L1.
“Objective response rate” refers to the patients that had greater than 30% reduction in the sum of the longest dimensions of their assessed target tumor lesions.
The compound of Formula (III) is being investigated in an ongoing Phase 1/1b clinical trial in patients with advanced cancers (NCT02655822 at www.clinicaltrials.gov). Biomarker investigations were conducted to explore immune modulation in serial tumor biopsies and peripheral blood as well associations between adenosine pathway genes and clinical activity. […]

Experiment [2] relates to tumor biopsies. The experiment in a line: On-treatment vs pre-treatment tumor biopsies, IHC and Nanostring gene expression. It is filed as in vivo, human. The conditions noted are these: on-treatment biopsies compared to pre-treatment biopsies. The text has this: FIGS. 8A-8H show log2-fold changes in immunohistochemistry and gene expression (i.e., mRNA) by Nanostring on on-treatment biopsies compared to pre-treatment biopsies and identifies pharmacodynamics changes that are observed in CD73-high tumors treated with a compound of Formula (III). FIG. 8A compares CD8 infiltration, measured by IHC, in patients expressing low levels and high levels of CD73 (where the p=0.005) after treatment with the compound of Formula (III). FIG. 8B compares PD-L1 inflammation infiltration, measured by IHC, in patients expressing low levels and high levels of CD73 (p=0.15) after treatment with the compound of Formula (III). FIG. 8C compares CXCL9 (chemokine C-X-C motif ligand 9) gene expression in patients expressing low levels and high levels of CD73 (p=0.02) after treatment with the compound of Formula (III). […]
The patients were orally administered the compound of Formula (III) at a dose of 100 mg, twice a day, for twenty-eight days. Tumor biopsies and blood samples were analyzed from patients with renal cell carcinoma, non-small cell lung cancer, triple negative breast cancer, microsatellite instable colorectal cancer treated with the compound of Formula (III). Paired tumor biopsies were analyzed: gene expression profiles (Nanostring), CD8, PD-L1 and CD73 (IHC). […]

Experiment [3] deals with T cell function. The experiment in a line: Suppression of T cell function by adenosine. Format: cell-based.
A short description of experiment [4]: Preclinical models.
[5] abbreviates: patients expressing high levels of both adenosine A2A receptors and CD73.
The mark [6] stands for this setting: patients expressing low levels of adenosine A2A receptors and/or CD73.

In the case of `Cc1ccc(-c2nc(N)nc3c2nnn3Cc2cccc(COC3CCOC3)n2)o1` (centres unmarked) [compound of Formula (III)], the Objective response rate in experiment [1] (patients expressing high levels of CD73) is given as 1 of 28; in experiment [1] (patients expressing high levels of PD-L1 mRNA), 1 of 20; in experiment [1] (patients expressing high levels of adenosine A2A receptors), 1 of 26; in experiment [1] (setting [5]), 0 of 16; in experiment [1] (patients expressing low levels of CD73) it was 0 of 9; in experiment [1] (patients expressing low levels of PD-L1 mRNA), 0 of 17. The Objective response rate in experiment [1] (setting [6]) was 1 of 21; in experiment [1] (patients with high levels of PD-L1 (IHC, SP142)) it was 1 of 13; in experiment [1] (patients with low levels of PD-L1 (IHC, SP142)) it was 0 of 24. The Disease control rate in experiment [1] (patients expressing high levels of CD73 (Nanostring)) is reported as 8 of 28; in experiment [1] (patients expressing high levels of PD-L1 mRNA (Nanostring)) it was 6 of 20; in experiment [1] (patients expressing high levels of adenosine A2A receptors (Nanostring, pre-treatment tumor)), 9 of 26; in experiment [1] (setting [5]) it was 1 of 16; in experiment [1] (patients expressing low levels of CD73 (Nanostring)) it was 1 of 9; in experiment [1] (patients expressing low levels of PD-L1 mRNA (Nanostring)), 3 of 17. The Disease control rate in experiment [1] (patients expressing low levels of adenosine A2A receptors (Nanostring, pre-treatment tumor)) is given as 0 of 11; in experiment [1] (setting [6]), 8 of 21; in experiment [1] (patients with high levels of PD-L1 (IHC on immune cells, SP142 antibody, ≥1%)), 2 of 13; in experiment [1] (patients with low levels of PD-L1 (IHC on immune cells, SP142 antibody, <1%)), 7 of 24. Besides, the Tumor regression entry in experiment [1] (patients with elevated expression of adenosine A2A receptor genes, CD73 and PD-L1 in baseline tumor samples compared to patients having low expression) is listed as “significant tumor regression”. In addition, the “Pharmacodynamics changes in IHC and gene expression” value in experiment [2] is reported as “observed only in CD73-high tumors”. Moreover, the “Effect on suppression of T cell function by adenosine” value in experiment [3] is recorded as “inhibits suppression of T cell function by adenosine”. The “Activity in preclinical models” value in experiment [4] is given as “active in multiple preclinical models”.
